How the values were obtained:
[1] = target: 72 kDa type IV collagenase (Homo sapiens, UniProt P08253); assay: Binding affinity to MMP2
[2] = target: Matrix metalloproteinase-9 (Homo sapiens, UniProt P14780); assay: Binding affinity to MMP9
Interstitial collagenase = target: T1, Interstitial collagenase (Homo sapiens, UniProt P03956); assay: Binding affinity to MMP1
T1 sequence (P03956 whole entry): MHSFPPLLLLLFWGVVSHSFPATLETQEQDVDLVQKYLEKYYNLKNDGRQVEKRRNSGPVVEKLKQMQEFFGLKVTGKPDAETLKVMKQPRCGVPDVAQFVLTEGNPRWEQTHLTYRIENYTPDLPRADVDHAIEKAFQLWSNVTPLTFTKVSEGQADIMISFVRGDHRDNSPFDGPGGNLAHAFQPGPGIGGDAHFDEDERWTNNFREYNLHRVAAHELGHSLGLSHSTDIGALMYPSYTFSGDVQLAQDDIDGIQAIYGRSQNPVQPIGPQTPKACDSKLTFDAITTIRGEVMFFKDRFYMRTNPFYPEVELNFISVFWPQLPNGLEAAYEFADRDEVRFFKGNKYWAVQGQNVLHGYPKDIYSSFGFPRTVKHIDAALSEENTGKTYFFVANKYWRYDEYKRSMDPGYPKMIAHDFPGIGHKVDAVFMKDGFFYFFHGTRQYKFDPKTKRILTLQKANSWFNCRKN

Collagenase 3 = Collagenase 3 (Homo sapiens, UniProt P45452); assay: Binding affinity to MMP13
[3] = target: Disintegrin and metalloproteinase domain-containing protein 17 (Homo sapiens, UniProt P78536); assay: Inhibitory activity against TACE
Chain of Disintegrin and metalloproteinase domain-containing protein 17 (P78536 whole entry, the tested form may be a part): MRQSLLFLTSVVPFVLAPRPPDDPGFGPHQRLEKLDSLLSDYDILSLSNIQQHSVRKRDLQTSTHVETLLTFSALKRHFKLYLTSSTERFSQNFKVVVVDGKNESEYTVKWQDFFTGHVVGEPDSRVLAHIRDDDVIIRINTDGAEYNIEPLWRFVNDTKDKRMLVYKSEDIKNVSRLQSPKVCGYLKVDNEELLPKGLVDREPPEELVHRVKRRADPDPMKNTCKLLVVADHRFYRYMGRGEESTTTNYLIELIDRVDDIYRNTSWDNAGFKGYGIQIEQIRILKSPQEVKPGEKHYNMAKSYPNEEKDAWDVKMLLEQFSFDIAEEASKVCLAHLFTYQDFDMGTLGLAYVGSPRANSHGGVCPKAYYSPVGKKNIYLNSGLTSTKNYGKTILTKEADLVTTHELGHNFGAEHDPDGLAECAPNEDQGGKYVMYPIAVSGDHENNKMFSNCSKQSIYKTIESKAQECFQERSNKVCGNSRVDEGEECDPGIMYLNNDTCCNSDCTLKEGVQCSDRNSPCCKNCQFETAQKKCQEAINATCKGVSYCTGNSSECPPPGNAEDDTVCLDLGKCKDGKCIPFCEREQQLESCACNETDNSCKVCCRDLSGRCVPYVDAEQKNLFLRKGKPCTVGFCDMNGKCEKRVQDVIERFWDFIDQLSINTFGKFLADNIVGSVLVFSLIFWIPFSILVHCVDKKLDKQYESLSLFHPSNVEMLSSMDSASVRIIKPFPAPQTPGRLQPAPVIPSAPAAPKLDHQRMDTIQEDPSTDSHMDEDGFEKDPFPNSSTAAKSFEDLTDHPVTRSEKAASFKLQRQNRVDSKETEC

Chain of 72 kDa type IV collagenase (P08253 whole entry): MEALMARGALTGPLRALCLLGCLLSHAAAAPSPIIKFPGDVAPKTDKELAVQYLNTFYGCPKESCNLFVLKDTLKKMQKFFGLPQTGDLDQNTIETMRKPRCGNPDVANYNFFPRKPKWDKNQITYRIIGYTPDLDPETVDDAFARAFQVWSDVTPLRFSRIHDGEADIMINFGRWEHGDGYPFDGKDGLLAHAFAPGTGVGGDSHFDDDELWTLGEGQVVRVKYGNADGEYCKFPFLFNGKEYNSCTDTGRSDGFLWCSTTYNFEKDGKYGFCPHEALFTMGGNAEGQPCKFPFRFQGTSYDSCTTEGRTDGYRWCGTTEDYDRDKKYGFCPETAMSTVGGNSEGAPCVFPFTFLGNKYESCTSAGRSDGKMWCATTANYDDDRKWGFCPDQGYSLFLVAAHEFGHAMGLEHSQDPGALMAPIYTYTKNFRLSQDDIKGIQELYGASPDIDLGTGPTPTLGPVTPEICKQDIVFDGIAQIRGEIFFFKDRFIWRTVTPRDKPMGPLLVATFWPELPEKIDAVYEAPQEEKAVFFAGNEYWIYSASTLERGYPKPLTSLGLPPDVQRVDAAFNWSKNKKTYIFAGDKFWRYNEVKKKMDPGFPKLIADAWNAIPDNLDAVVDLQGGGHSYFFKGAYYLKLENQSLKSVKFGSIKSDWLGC
Chain of Matrix metalloproteinase-9 (P14780 whole entry): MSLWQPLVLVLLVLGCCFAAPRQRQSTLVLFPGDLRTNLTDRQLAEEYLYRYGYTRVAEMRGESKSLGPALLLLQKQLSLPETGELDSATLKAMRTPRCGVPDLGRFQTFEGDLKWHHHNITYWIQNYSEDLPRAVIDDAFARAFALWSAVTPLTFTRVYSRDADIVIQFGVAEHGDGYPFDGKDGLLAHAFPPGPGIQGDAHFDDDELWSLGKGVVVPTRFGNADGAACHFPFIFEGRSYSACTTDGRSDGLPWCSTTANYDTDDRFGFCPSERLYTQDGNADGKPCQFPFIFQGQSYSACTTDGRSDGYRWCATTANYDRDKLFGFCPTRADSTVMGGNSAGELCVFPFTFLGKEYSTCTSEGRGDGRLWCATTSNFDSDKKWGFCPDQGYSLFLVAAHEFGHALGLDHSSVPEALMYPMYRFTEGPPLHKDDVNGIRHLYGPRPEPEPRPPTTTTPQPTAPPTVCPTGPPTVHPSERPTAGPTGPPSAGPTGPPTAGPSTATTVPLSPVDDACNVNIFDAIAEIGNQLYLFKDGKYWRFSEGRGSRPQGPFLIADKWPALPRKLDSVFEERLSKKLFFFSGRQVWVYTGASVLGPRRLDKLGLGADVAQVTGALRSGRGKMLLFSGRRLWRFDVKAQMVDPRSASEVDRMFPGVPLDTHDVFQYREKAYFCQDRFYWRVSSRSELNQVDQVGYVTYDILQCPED

Structure (SMILES)	Ki [1]	Ki [2]	Ki (Interstitial collagenase)	Ki (Collagenase 3)	IC50 [3]
Cc1cc(COc2ccc(CC3C(C(=O)NO)CCS3(=O)=O)cc2)c2ccccc2n1 (configuration not stated)	> 3330 nM	> 2130 nM	> 4950 nM	> 5030 nM	150 nM
COc1ccc(-c2ccc(CN3C(C(=O)NO)CCS3(=O)=O)cc2)cc1 (configuration not stated)			> 4950 nM		> 1000 nM
Cc1cc(COc2ccc(N3C(C(=O)NO)CCS3(=O)=O)cc2)c2ccccc2n1 (configuration not stated)	> 3330 nM	> 2130 nM	> 4950 nM	> 5030 nM	5.9 nM
Cc1cc(COc2ccc(N3C(C(=O)NO)CNS3(=O)=O)cc2)c2ccccc2n1 (configuration not stated)	> 3330 nM	> 2130 nM	> 4950 nM	> 5030 nM	8.3 nM
Cc1cc(COc2ccc(N3C(C(=O)NO)CCCS3(=O)=O)cc2)c2ccccc2n1 (configuration not stated)	> 3330 nM	> 2130 nM	> 4950 nM	> 5030 nM	3.7 nM
Cc1cc(COc2ccc(CN3C(C(=O)NO)CCS3(=O)=O)cc2)c2ccccc2n1 (configuration not stated)	> 3330 nM	> 2130 nM	> 4950 nM	> 5030 nM	900 nM
Cc1cc(COc2ccc(CCN3C(C(=O)NO)CCS3(=O)=O)cc2)c2ccccc2n1 (configuration not stated)	> 3330 nM	> 2130 nM	> 4950 nM	> 5030 nM	480 nM

— ChEMBL document CHEMBL1138127, “Conversion of potent MMP inhibitors into selective TACE inhibitors” (Bioorg Med Chem Lett, 2006)
